Blank lines part the entries; values can stand above or below the compound they belong to. Where no end group is shown, it is not given here.
How the values were obtained:
[1] = tested on: mice; test: Oral glucose tolerance test (OGTT) in mice after nasal administration of GLP-1 derivative; assay type: in vivo, mouse; parameters: Blood insulin level (5 minutes after glucose administration): unit not given here; settings: for Blood glucose level (area under blood concentration-time curve (AUC0-20 min)) / Blood insulin level (5 minutes after glucose administration): average ± standard error
Method: That is, the GLP-1 derivative was administered via the nose into mice, and evaluated in an oral glucose tolerance test (OGTT) where a change in blood glucose level in the mice after tolerated with glucose was measured.
At the time of the test, the solution was diluted to a predetermined concentration with physiological saline.
(§1) Mice were anesthetized lightly with ether. […] The GLP-1 derivative solution was inhaled by breathing through the nose into the mouse.
(§2) The blood glucose level was determined by collecting several μl blood from a cut in the tail just before the test and 5, 10 and 20 minutes after glucose administration, and measuring the blood with a small blood-glucose-level measuring instrument (Glutest Ace, manufactured by Sanwa Kagaku Kenkyusho Co., Ltd.).
(§3) The blood insulin level was determined by collecting 75 μl blood from an orbital venous plexus with a heparin-treated glass capillary 5 minutes after administration of glucose, then centrifuging the blood and measuring plasma insulin by EIA (Levis Mouse Insulin Kit, manufactured by Shibayagi Co., Ltd.).

[2] = molecular target: T1, trypsin (Sus scrofa, UniProt P00761); test: Resistance to trypsin (residual cAMP activity); assay type: in vitro ADME
T1 construct: purchased Promega V5113
T1 sequence (P00761 9-231): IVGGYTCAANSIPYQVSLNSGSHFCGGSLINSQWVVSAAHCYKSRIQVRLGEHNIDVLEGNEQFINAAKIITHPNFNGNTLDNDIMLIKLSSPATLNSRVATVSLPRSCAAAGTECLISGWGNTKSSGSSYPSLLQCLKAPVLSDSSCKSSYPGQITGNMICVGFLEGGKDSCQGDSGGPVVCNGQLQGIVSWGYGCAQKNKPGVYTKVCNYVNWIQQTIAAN
Method: Then, 5 μl of 500 μg/ml trypsin (Promega Cat. No. V5113) was added to 100 μl of the solution, and the mixture was incubated at 37° C. for 1 hour. The reaction was terminated by adding 1200 μl of 71.5% (final 65%) ethanol, and the reaction solution was centrifuged at 15,000 rpm at 4° C. for 5 minutes to recover a supernatant which was then evaporated into dryness. The dried product was dissolved in distilled water and measured for cAMP activity by the method in Test Example 1, to determine the residual activity (%).

[3] = tested on: mice; test: OGTT in mice after nasal administration, with or without charge-regulated fat emulsion; assay type: in vivo, mouse; parameters: unit not given here
Method: The charge-regulated fat emulsion used was prepared according to JP-A 8-27018; that is, a charge-regulated fat emulsion at a final concentration of 8% was obtained by using 2% (w/w) phosphatidyl glycerol (sodium salt), 8% (w/w) neutral oil and 90% (w/w) water.
50 μl of 8% charge-regulated fat emulsion was mixed with 3.56 μl of 1 mM 8S-GLP-1+5R solution and 146.4 μl distilled water to give 2% charge-regulated fat emulsion solution containing 8S-GLP-1+5R at a final concentration of 0.0178 mM.
as §1
as §2, with “10, 20” for “5, 10”, “30” for “20”, “glucose” for “the blood”, “a” for “a small”
as §3, with “capillary 10” for “capillary 5”

[4] = tested on: mouse Langerhans islet; test: Insulin secretion stimulating activity using mouse Langerhans islet; assay type: cell-based; settings: 16.7 mM glucose
[5] = tested on: mice; test: Blood glucose lowering activity in mice after subcutaneous administration and intravenous glucose; assay type: in vivo, mouse; settings: for Blood sugar level 20 minutes after tolerance with glucose: 0.5 g/kg glucose i.v., mouse
[6] = molecular target: dipeptidyl peptidase IV (Homo sapiens, UniProt P27487); test: Resistance to dipeptidyl peptidase IV (residual cAMP activity); assay type: in vitro ADME
Sequence of dipeptidyl peptidase IV (P27487 whole entry, species assumed): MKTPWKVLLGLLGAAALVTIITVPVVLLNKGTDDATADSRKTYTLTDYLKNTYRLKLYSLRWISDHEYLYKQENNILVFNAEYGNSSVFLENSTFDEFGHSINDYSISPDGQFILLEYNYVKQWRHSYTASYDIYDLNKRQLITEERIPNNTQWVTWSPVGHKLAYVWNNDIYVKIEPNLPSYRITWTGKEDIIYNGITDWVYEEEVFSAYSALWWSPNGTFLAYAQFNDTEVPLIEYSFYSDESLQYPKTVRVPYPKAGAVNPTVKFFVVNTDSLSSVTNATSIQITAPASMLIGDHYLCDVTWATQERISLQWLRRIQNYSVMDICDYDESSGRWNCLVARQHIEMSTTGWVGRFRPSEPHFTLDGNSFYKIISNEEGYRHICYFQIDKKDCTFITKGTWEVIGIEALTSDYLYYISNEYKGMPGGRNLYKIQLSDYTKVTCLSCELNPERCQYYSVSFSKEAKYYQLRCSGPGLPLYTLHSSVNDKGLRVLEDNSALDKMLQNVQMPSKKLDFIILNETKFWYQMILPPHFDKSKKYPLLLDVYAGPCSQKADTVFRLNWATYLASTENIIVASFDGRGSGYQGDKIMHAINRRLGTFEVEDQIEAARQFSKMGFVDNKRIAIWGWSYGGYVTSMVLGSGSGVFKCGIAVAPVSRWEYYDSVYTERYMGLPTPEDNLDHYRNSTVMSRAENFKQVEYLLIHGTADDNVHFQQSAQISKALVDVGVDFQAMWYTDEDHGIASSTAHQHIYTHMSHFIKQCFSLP
Method: Thereafter, the sample was extracted with a 2-fold excess volume of ethanol, centrifuged and evaporated into dryness by an evaporator. The resulting dried product was dissolved in distilled water containing 1% BSA, and its cyclic AMP production activity was measured according to Test Example 1, to calculate the residual activity (%).

[7] = molecular target: T2, human GLP-1 receptor (Homo sapiens, UniProt P43220); test: Cyclic AMP-producing activity in human GLP-1 receptor-expressing CHO-K1 cells; assay type: cell-based
T2 construct: expressed in transfected cells; host or cells: CHO-K1 (Chinese hamster ovary)
T2 sequence (P43220 24-463): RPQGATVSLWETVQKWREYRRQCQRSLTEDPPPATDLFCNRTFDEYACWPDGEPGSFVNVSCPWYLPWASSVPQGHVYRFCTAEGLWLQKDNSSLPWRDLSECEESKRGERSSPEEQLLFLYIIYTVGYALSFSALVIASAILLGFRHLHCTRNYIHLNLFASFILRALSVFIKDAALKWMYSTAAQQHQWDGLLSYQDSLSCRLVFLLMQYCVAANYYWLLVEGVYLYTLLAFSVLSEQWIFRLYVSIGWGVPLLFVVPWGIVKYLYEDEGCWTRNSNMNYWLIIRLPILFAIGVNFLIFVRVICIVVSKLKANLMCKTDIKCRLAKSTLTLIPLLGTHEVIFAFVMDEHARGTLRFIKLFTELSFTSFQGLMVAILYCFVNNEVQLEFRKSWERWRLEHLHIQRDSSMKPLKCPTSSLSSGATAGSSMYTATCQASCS
Method: 10 μl of 5 N hydrochloric acid was added to terminate the incubation.

Compound: [Ser^8]-GLP-1 (7-35)-Arg-Lys-Lys-NH2 (HSEGTFTSDVSSYLEGQAAKEFIAWLVKGRKK-NH2) [8S-GLP-1 + 2K]
Blood glucose level (area under blood concentration-time curve (AUC0-20 min)) ([1]; 1.07 nmol/mouse): 598 ± 63 mg·min/dL | Blood insulin level (5 minutes after glucose administration) ([1]; 1.07 nmol/mouse): 862 ± 150

Compound: [Ser^8]-GLP-1 (7-35)-Lys-Lys-Lys-Lys-Lys-Arg-NH2 (HSEGTFTSDVSSYLEGQAAKEFIAWLVKGKKKKKR-NH2) [8S, des36R-GLP-1 + 5KR]
blood glucose depressing action (in words) [1]: strongest blood glucose depressing action | Blood glucose level (area under blood concentration-time curve (AUC0-20 min)) ([1]; 1.07 nmol/mouse): 404 ± 71 mg·min/dL | Blood insulin level (5 minutes after glucose administration) ([1]; 1.07 nmol/mouse): 2229 ± 346

Compound: [Ser^8]-GLP-1 (7-35)-Arg-Arg-Arg-Arg-NH2 (HSEGTFTSDVSSYLEGQAAKEFIAWLVKGRRRR-NH2) [8S-GLP-1 + 3R]
Blood glucose level (area under blood concentration-time curve (AUC0-20 min)) ([1]; 1.07 nmol/mouse): 509 ± 92 mg·min/dL | Blood insulin level (5 minutes after glucose administration) ([1]; 1.07 nmol/mouse): 1359 ± 318

Compound: [Ser^8]-GLP-1 (7-35)-Lys-Lys-Lys-Arg-NH2 (HSEGTFTSDVSSYLEGQAAKEFIAWLVKGKKKR-NH2) [8S, des36R-GLP-1 + 3KR]
Blood glucose level (area under blood concentration-time curve (AUC0-20 min)) ([1]; 1.07 nmol/mouse): 557 ± 53 mg·min/dL | Blood insulin level (5 minutes after glucose administration) ([1]; 1.07 nmol/mouse): 1176 ± 233

Compound: [Ser^8]-GLP-1 (7-35)-Arg-Arg-Arg-Arg-Arg-NH2 (HSEGTFTSDVSSYLEGQAAKEFIAWLVKGRRRRR-NH2) [8S-GLP-1 + 4R]
blood glucose depressing action (in words) [1]: strongest blood glucose depressing action | Blood glucose level (area under blood concentration-time curve (AUC0-20 min)) ([1]; 1.07 nmol/mouse): 388 ± 54 mg·min/dL | Blood insulin level (5 minutes after glucose administration) ([1]; 1.07 nmol/mouse): 1713 ± 430

Compound: [Ser^8]-GLP-1 (7-35)-Arg-Arg-Arg-NH2 (HSEGTFTSDVSSYLEGQAAKEFIAWLVKGRRR-NH2) [8S-GLP-1 + 2R]
Blood glucose level (area under blood concentration-time curve (AUC0-20 min)) ([1]; 1.07 nmol/mouse): 535 ± 58 mg·min/dL | Blood insulin level (5 minutes after glucose administration) ([1]; 1.07 nmol/mouse): 957 ± 86

Residual activity (%) ([2]; Trypsin + (37° C., 1 hour, pH 7.8)): 94.8% | Residual activity (%) ([2]; Trypsin − (not treated)): 100%
Compound: CC[C@H](C)[C@H](NC(=O)[C@H](Cc1ccccc1)NC(=O)[C@H](CCC(=O)O)NC(=O)[C@H](CCC(N)=O)NC(=O)[C@H](C)NC(=O)[C@H](C)NC(=O)[C@H](CCC(N)=O)NC(=O)CNC(=O)[C@H](CCC(=O)O)NC(=O)[C@H](CC(C)C)NC(=O)[C@H](Cc1ccc(O)cc1)NC(=O)[C@H](CO)NC(=O)[C@H](CO)NC(=O)[C@@H](NC(=O)[C@H](CC(=O)O)NC(=O)[C@H](CO)NC(=O)[C@@H](NC(=O)[C@H](Cc1ccccc1)NC(=O)[C@@H](NC(=O)CNC(=O)[C@H](CCC(=O)O)NC(=O)[C@H](C)NC(=O)[C@@H](N)Cc1c[nH]cn1)[C@@H](C)O)[C@@H](C)O)C(C)C)C(=O)N[C@@H](C)C(=O)N[C@@H](Cc1c[nH]c2ccccc12)C(=O)N[C@@H](CC(C)C)C(=O)N[C@H](C(=O)N[C@@H](CC(N)=O)C(=O)NCC(=O)N[C@@H](CCCNC(=N)N)C(N)=O)C(C)C [26Q34N-GLP-1, [Gln^26, Asn^34]-GLP-1 (7-35)-Arg-NH2]

Compound: [Ser^8]-GLP-1 (7-35)-Arg-Arg-Arg-Arg-Arg-Arg-Arg-Arg-Arg-NH2 (HSEGTFTSDVSSYLEGQAAKEFIAWLVKGRRRRRRRRR-NH2) [8S-GLP-1 + 8R]
Blood glucose level (area under blood concentration-time curve (AUC0-20 min)) ([1]; 1.07 nmol/mouse): 487 ± 32 mg·min/dL | Blood insulin level (5 minutes after glucose administration) ([1]; 1.07 nmol/mouse): 1882 ± 402

Compound: [Ser^8]-GLP-1 (7-35)-Lys-Lys-Lys-Lys-Lys-Lys-Lys-Lys-Lys-Lys-Arg-NH2 (HSEGTFTSDVSSYLEGQAAKEFIAWLVKGKKKKKKKKKKR-NH2) [8S, des36R-GLP-1 + 10KR]
Blood glucose level (area under blood concentration-time curve (AUC0-20 min)) ([1]; 1.07 nmol/mouse): 492 ± 106 mg·min/dL | Blood insulin level (5 minutes after glucose administration) ([1]; 1.07 nmol/mouse): 2379 ± 520

Compound: [Ser^8]-GLP-1 (7-35)-Lys-Arg-NH2 (HSEGTFTSDVSSYLEGQAAKEFIAWLVKGKR-NH2) [8S, des36R-GLP-1 + 1KR]
Blood glucose level (area under blood concentration-time curve (AUC0-20 min)) ([1]; 1.07 nmol/mouse): 611 ± 51 mg·min/dL | Blood insulin level (5 minutes after glucose administration) ([1]; 1.07 nmol/mouse): 1349 ± 244

Compound: [Ser^8]-GLP-1 (7-35)-Lys-Lys-Arg-NH2 (HSEGTFTSDVSSYLEGQAAKEFIAWLVKGKKR-NH2) [8S, des36R-GLP-1 + 2KR]
Blood glucose level (area under blood concentration-time curve (AUC0-20 min)) ([1]; 1.07 nmol/mouse): 564 ± 52 mg·min/dL | Blood insulin level (5 minutes after glucose administration) ([1]; 1.07 nmol/mouse): 1243 ± 309

Compound: [Ser^8]-GLP-1 (7-35)-Arg-Arg-Arg-Arg-Arg-Arg-NH2 (HSEGTFTSDVSSYLEGQAAKEFIAWLVKGRRRRRR-NH2) [8S-GLP-1 + 5R]
Blood glucose level (area under blood concentration-time curve (AUC0-20 min)) ([1]; 1.07 nmol/mouse): 483 ± 26 mg·min/dL | Blood insulin level (5 minutes after glucose administration) ([1]; 1.07 nmol/mouse): 1504 ± 250 | Blood insulin level (10 minutes after glucose administration) ([3]; 0.357 nmol/mouse, used in combination with 2% charge-regulated fat emulsion): 560 ± 81 | Blood insulin level (10 minutes after glucose administration) ([3]; 0.357 nmol/mouse, without charge-regulated fat emulsion): 506 ± 34

Compound: [Ser^8]-GLP-1 (7-35)-Lys-Lys-Lys-Lys-Lys-Lys-Lys-Arg-NH2 (HSEGTFTSDVSSYLEGQAAKEFIAWLVKGKKKKKKKR-NH2) [8S, des36R-GLP-1 + 7KR]
Blood glucose level (area under blood concentration-time curve (AUC0-20 min)) ([1]; 1.07 nmol/mouse): 457 ± 69 mg·min/dL | Blood insulin level (5 minutes after glucose administration) ([1]; 1.07 nmol/mouse): 1604 ± 344

Compound: [Ser^8]-GLP-1 (7-35)-Arg-Arg-Arg-Arg-Arg-Arg-Arg-NH2 (HSEGTFTSDVSSYLEGQAAKEFIAWLVKGRRRRRRR-NH2) [8S-GLP-1 + 6R]
Blood glucose level (area under blood concentration-time curve (AUC0-20 min)) ([1]; 1.07 nmol/mouse): 559 ± 27 mg·min/dL | Blood insulin level (5 minutes after glucose administration) ([1]; 1.07 nmol/mouse): 1633 ± 449

Compound: GLP-1 (7-36)—NH2 [reference compound]
Blood glucose level (area under blood concentration-time curve (AUC0-20 min)) ([1]; 1.07 nmol/mouse): 697 ± 94 mg·min/dL | Blood insulin level (5 minutes after glucose administration) ([1]; 1.07 nmol/mouse): 662 ± 91 | Blood glucose level (area under blood concentration-time curve (AUC0-20 min)) ([1]; 10.7 nmol/mouse): 399 ± 35 mg·min/dL | Blood insulin level (5 minutes after glucose administration) ([1]; 10.7 nmol/mouse): 743 ± 147 | Blood insulin level (10 minutes after glucose administration) ([3]; 10.7 nmol/mouse, without charge-regulated fat emulsion): 377 ± 41 | Amount of insulin secreted ([4]; assay concentration −8 log M): 6.71 ng/islet/30 min | Amount of insulin secreted ([4]; assay concentration −9 log M): 5.11 ng/islet/30 min | Amount of insulin secreted ([4]; assay concentration −10 log M): 4.11 ng/islet/30 min | Blood sugar level 20 minutes after tolerance with glucose ([5]; 5 μg/kg): 119 mg/dL | Blood sugar level 20 minutes after tolerance with glucose ([5]; 10 μg/kg): 103 mg/dL | Blood sugar level 20 minutes after tolerance with glucose ([5]; 20 μg/kg): 75 mg/dL | Residual activity (%) ([6]; DPP IV + (40 μU/μl, 37° C., 60 minutes)): 25% | Residual activity (%) ([6]; DPP IV −(not treated)): 100%

in vitro activity of producing cyclic AMP (in words) [7]: the activity was maintained | Amount of cAMP produced ([7]; concentration −8 log M): 79.2 pmol/10^5 cell/30 min | Amount of cAMP produced ([7]; concentration −9 log M): 76.1 pmol/10^5 cell/30 min | Amount of cAMP produced ([7]; concentration −10 log M): 24.2 pmol/10^5 cell/30 min | Amount of cAMP produced ([7]; concentration −11 log M): 4.7 pmol/10^5 cell/30 min | Amount of cAMP produced ([7]; concentration −12 log M): 0.6 pmol/10^5 cell/30 min
Compound: [Ser^8, Gln^26, Asn^34]-GLP-1 (7-35)-Arg (HSEGTFTSDVSSYLEGQAAQEFIAWLVNGR; ends and bridges not checked) [8S26Q34N-GLP-1]
insulin secretion stimulating activity compared with naturally occurring GLP-1 (in words) ([4]; 30 minutes): stronger insulin secretion stimulating activity than that of the naturally occurring GLP-1 | Amount of insulin secreted ([4]; assay concentration −8 log M): 9.85 ng/islet/30 min | Amount of insulin secreted ([4]; assay concentration −9 log M): 6.61 ng/islet/30 min | Amount of insulin secreted ([4]; assay concentration −10 log M): 3.64 ng/islet/30 min | blood glucose lowering activity in mice (in words) [5]: concentration-dependent depression in blood glucose level | Blood sugar level 20 minutes after tolerance with glucose ([5]; 5 μg/kg): 110 mg/dL | Blood sugar level 20 minutes after tolerance with glucose ([5]; 10 μg/kg): 95 mg/dL | Blood sugar level 20 minutes after tolerance with glucose ([5]; 20 μg/kg): 21 mg/dL
